Test results from patent US6329000A, “Extract of pine needle and the use thereof” (priority 1999, dated 2001).

Key:
blood pressure = assay: Clinical test of the composition to lower blood pressure; type: in vivo, human; settings: 44 cases per group, 20 days
Protocol: All of them were diagnosed as hypertension according to the diagnostic standard of WHO. […] The patients of the control group were treated with Captopril. The patients of the control group were adults aged below 59, and their average age was 47±7.8. The patients stopped taking hypotensor a week before taking part in the test. […] If the blood pressure was not reduced to the normal scope, then a dose (0.5 g) was increased every 5 days. The crescendo every 5 days, and the maximal dose couldn't exceed 3 g each time and 3 times a day. The whole course of treatment was 20 days. 25 mg Captopril was given to the patients of the control group each time and three times a day. […] The crescendo every 5 days, and the maximal dose couldn't exceed 75 mg each time and three times a day. The whole course of treatment was 20 days too.
The blood pressure before treatment: All the patients stopped taking hypotensor a week before treatment. Then the blood pressure was measured once a day continuously for 5 days. Took the mean of the 5 values (non same day) as the blood pressure before treatment.
The blood pressure after treatment: Measured the blood pressure once a day after the treatment. Took the mean of the 5 values measured on the 16th, 17th, 18th, 19th, 20th day after the treatment as the blood pressure after the treatment. Examined the blood routine, the urine routine, the functions of liver, the renal function, the serum electrolyte (including K^+, Na^+, Cl^-), the blood-lipid, the blood sugar, the ECG of every day before and after the treatment.
The criteria of therapeutic effect:
As to the systolic hypertension, the systolic pressure was reduced more than 4 kpa. Ineffectiveness: The decrement of the blood pressure after the treatment didn't achieve the above standard.

blood-lipid = assay: Hypolipidemic test in rabbits on high fat diet; type: in vivo, rabbit; settings: positive control 0.3 g/kg/d
Protocol: Experimental animals: 60 Beijing white rabbits with big ears, all male with body weight of 1.5-2 kg.
Drugs and reagents: cholesterol (produced at Beijing Chemical Reagent Company). Propyl thiooxyuracil tablet (refers to PTV hereafter, produced in Germany, 50 mg each tablet), lard (prepared by ourselves). The extract powder from pine needle of the invention (refers to the power of pine needle hereafter). Inostitol hexanicotinate tablet (produced by the second Pharmaceutical Factory of Beijing, 0.2 each tablet). The kits of total cholesterol, triglyceride, high density lipoprotein, and low density lipoprotein (produced by Beijing Zhongsheng Biotechnical Company).
Methods: The white rabbits with big ears were divided into 5 groups at random after raised for 10 days with normal diet. 10 rabbits each group. The high fat diet was given after taking blood from the helicine veins of the fasting rabbits in the morning. Determined the blood-lipid of the blood samples. The high fat diet included cholesterol 2 g/kg (body weight)/d, lard 0.5 g/kg/d, PTV 12.5 mg/kg/d. In the forth group, gave […] of the powder of pine needle along with the high fat diet to the rabbits of (the prevention group). Took blood from the fasting rabbits again and determined their body weights after 15 days of high-fat diet. Then stopped the high-fat diet and changed it for normal diet: (1) blank control group: giving distilled water 10 ml each day with the gavage method; (2) positive control group: giving Inositol hexnicotinate tablets, 0.3 g/kg/d; (3) low dose group: giving the powder of pine needle, 0.25 g/kg/d; (4) prevention group: went on giving the powder of pine needle 0.75 g/kg/d, 30 days in all; (5) high dose group: giving the powder of pine needle, 1.5 g/kg/d. The powder was dissolve din 10 ml distilled water and gave it with gavage method once a day. Took blood from the fasting rabbits on the fifteenth day after the administration to determine the levels of blood-lipid. The levels of total cholestorol, triglyceride, high density lipoprotein and low density lipoprotein were examined by CHOO-PAP method, GPO-PAP method, PTA-Mg^2+ deposition method and PVS one-step deposition method, respectively. The instrument used was Hitachi, Model 750 automatic biochemical analyzer.

Compound	Effectiveness (blood pressure)	ineffectiveness (blood pressure)	total effective rate (blood pressure)	remarkable effectiveness (blood pressure; composition 1.5-3 g t.i.d., captopril 25-75 mg t.i.d.)	high density lipoprotein IR % (increasing rate) (blood-lipid)	low density lipoprotein DR % (blood-lipid)	total cholesterol DR % (decreasing rate) (blood-lipid)	triglyceride DR % (blood-lipid)	high density lipoprotein after treatment (blood-lipid; after HFD 0.83)	triglyceride after treatment (blood-lipid; after HFD 1.87)	low density lipoprotein after treatment (blood-lipid; after HFD 9.20)	total cholesterol after treatment (blood-lipid; after HFD 26.67)
C[C@H](CS)C(=O)N1CCC[C@H]1C(=O)O [captopril]	10 case number	8 case number	82%	26 case number	–	–	–	–	–	–	–	–
O=C(O[C@H]1[C@H](OC(=O)c2cccnc2)[C@@H](OC(=O)c2cccnc2)[C@H](OC(=O)c2cccnc2)[C@@H](OC(=O)c2cccnc2)[C@H]1OC(=O)c1cccnc1)c1cccnc1 [Inositol hexanicotinate]	–	–	–	–	8.90%	37.38%	28.20%	16.03%	0.74	1.64	5.71	19.48
